Measurements published in patent publication US20100273701A1, “USE OF SALUSIN BETA ALONE OR IN COMBINATION WITH OCTREOTIDE AS A THERAPEUTIC AGENT” (priority 2007, published 2010).

System: drug-resistant Mycobacterium tuberculosis
Conditions: 10 micrograms per ml; seven days; strain resistant to PAS, streptomycin and isoniazid

C[C@@H](O)[C@@H]1NC(=O)[C@H](CCCCN)NC(=O)[C@@H](Cc2c[nH]c3ccccc23)NC(=O)[C@H](Cc2ccccc2)NC(=O)[C@@H](NC(=O)[C@H](N)Cc2ccccc2)CSSC[C@@H](C(=O)N[C@H](CO)[C@@H](C)O)NC1=O [Peptide 2, D-Phe-Cys-Phe-D-Trp-Lys-Thr-Cys-L-threoninol]
inhibition of the growth of Mycobacterium tuberculosis: 100%

Ala-lle-Phe-Ile-Phe-Ile-Arg-Trp-Leu-Leu-Lys-Leu-Gly-His-His-Gly-Arg-Ala-Pro-Pro-OH [Peptide 1]
inhibition of the growth of Mycobacterium tuberculosis: 100%
